These are literature values, as cited in publication PMC9851200, “Multiparameter phenotypic screening for endogenous TFEB and TFE3 translocation identifies novel chemical series modulating lysosome function” (Autophagy, 2022).

Structures are written as SMILES.

Design in all cases: method as in original PKIS2 published data
Series [1] deals with T1, kinases (KINOMEscan panel) (Homo sapiens, UniProt O75385).
T1 sequence (O75385 1-1050): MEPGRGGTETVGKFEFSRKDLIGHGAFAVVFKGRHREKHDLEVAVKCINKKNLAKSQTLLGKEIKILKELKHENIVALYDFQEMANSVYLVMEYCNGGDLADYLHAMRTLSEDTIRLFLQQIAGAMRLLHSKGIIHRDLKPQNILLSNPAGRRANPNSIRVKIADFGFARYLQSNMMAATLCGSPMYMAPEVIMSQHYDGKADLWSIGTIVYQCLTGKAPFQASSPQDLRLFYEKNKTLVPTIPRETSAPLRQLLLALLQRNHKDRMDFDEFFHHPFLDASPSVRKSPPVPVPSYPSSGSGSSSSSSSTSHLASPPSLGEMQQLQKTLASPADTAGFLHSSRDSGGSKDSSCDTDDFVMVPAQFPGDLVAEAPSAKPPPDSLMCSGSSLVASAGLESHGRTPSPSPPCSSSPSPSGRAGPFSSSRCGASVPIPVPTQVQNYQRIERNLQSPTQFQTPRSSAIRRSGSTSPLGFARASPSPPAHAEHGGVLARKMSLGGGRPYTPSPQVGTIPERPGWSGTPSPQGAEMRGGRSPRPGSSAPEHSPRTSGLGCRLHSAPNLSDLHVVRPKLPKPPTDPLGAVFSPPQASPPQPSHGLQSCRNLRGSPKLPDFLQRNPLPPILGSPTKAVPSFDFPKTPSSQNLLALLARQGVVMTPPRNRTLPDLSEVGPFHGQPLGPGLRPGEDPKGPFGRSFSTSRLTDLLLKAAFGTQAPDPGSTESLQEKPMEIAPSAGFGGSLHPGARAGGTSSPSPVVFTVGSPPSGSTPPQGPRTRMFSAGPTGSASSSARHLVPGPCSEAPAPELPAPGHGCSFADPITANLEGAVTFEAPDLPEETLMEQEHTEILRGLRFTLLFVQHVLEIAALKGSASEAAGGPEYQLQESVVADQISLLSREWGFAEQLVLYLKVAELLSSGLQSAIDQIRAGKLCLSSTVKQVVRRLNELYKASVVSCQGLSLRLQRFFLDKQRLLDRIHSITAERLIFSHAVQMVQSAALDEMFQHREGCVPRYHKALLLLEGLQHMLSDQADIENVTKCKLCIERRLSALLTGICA
As to conditions: Published KINOMEscan; ref original PKIS2 published data; cited from earlier work.

In series [2] the target is kinases (KINOMEscan panel) (Homo sapiens, UniProt O95747). As to conditions: Published KINOMEscan; ref original PKIS2 published data; cited from earlier work.
For series [3], the target named is T2, kinases (KINOMEscan panel) (Homo sapiens, UniProt P33981).
T2 sequence (P33981 1-857): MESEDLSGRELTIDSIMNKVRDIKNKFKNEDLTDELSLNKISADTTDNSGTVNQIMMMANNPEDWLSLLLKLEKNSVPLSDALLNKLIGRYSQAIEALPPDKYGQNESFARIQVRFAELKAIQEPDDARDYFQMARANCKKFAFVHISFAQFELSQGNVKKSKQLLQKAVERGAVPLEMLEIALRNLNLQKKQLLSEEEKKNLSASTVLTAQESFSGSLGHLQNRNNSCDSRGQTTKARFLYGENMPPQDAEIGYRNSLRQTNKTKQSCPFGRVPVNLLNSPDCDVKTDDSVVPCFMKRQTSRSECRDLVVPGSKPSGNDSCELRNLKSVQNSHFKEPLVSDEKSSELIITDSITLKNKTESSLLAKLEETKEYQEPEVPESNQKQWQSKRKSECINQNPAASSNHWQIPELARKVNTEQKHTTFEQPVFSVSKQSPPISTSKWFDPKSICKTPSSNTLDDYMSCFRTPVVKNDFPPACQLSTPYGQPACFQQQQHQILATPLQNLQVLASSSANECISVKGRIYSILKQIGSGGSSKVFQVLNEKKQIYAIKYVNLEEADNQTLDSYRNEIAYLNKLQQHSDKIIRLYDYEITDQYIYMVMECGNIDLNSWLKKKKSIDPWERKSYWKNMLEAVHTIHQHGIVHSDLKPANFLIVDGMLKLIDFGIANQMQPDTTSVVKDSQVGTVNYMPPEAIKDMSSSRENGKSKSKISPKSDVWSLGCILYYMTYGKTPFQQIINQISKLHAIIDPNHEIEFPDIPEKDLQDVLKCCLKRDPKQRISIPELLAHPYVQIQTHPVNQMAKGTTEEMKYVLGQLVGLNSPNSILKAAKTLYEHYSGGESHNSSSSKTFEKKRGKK
The conditions noted are these: Published KINOMEscan; ref original PKIS2 published data; cited from earlier work.

The target of series [4] is kinases (KINOMEscan panel) (Homo sapiens, UniProt Q15746). As to conditions: kinase MYLK; Published KINOMEscan; ref original PKIS2 published data; cited from earlier work.
For series [5], the target named is T3, kinases (KINOMEscan panel) (Homo sapiens, UniProt Q99640).
T3 sequence (Q99640 1-499): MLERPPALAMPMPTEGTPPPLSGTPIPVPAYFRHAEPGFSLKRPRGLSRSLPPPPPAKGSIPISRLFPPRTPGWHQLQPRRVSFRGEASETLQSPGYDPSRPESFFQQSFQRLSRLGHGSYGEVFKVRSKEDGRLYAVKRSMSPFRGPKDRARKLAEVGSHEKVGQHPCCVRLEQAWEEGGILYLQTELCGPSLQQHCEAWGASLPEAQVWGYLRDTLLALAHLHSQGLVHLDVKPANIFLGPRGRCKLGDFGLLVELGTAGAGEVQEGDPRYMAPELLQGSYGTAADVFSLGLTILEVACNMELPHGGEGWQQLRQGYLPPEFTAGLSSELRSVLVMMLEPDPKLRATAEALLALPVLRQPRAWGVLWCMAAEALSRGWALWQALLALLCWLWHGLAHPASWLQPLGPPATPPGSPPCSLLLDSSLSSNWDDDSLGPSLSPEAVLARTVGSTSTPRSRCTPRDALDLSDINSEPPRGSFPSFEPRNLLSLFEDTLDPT
The conditions noted are these: kinase PKMYT1; Published KINOMEscan; ref original PKIS2 published data; cited from earlier work.

For series [6], the target named is kinases (KINOMEscan panel) (Homo sapiens, UniProt Q9BUB5). As to conditions: Published KINOMEscan; ref original PKIS2 published data; cited from earlier work.
Series [7] addresses kinases (KINOMEscan panel) (Homo sapiens, UniProt Q9BWU1). As to conditions: kinase CDK19; Published KINOMEscan; ref original PKIS2 published data; cited from earlier work.

Sequence of kinases (KINOMEscan panel) (Homo sapiens, UniProt Q15746) (Q15746 whole entry): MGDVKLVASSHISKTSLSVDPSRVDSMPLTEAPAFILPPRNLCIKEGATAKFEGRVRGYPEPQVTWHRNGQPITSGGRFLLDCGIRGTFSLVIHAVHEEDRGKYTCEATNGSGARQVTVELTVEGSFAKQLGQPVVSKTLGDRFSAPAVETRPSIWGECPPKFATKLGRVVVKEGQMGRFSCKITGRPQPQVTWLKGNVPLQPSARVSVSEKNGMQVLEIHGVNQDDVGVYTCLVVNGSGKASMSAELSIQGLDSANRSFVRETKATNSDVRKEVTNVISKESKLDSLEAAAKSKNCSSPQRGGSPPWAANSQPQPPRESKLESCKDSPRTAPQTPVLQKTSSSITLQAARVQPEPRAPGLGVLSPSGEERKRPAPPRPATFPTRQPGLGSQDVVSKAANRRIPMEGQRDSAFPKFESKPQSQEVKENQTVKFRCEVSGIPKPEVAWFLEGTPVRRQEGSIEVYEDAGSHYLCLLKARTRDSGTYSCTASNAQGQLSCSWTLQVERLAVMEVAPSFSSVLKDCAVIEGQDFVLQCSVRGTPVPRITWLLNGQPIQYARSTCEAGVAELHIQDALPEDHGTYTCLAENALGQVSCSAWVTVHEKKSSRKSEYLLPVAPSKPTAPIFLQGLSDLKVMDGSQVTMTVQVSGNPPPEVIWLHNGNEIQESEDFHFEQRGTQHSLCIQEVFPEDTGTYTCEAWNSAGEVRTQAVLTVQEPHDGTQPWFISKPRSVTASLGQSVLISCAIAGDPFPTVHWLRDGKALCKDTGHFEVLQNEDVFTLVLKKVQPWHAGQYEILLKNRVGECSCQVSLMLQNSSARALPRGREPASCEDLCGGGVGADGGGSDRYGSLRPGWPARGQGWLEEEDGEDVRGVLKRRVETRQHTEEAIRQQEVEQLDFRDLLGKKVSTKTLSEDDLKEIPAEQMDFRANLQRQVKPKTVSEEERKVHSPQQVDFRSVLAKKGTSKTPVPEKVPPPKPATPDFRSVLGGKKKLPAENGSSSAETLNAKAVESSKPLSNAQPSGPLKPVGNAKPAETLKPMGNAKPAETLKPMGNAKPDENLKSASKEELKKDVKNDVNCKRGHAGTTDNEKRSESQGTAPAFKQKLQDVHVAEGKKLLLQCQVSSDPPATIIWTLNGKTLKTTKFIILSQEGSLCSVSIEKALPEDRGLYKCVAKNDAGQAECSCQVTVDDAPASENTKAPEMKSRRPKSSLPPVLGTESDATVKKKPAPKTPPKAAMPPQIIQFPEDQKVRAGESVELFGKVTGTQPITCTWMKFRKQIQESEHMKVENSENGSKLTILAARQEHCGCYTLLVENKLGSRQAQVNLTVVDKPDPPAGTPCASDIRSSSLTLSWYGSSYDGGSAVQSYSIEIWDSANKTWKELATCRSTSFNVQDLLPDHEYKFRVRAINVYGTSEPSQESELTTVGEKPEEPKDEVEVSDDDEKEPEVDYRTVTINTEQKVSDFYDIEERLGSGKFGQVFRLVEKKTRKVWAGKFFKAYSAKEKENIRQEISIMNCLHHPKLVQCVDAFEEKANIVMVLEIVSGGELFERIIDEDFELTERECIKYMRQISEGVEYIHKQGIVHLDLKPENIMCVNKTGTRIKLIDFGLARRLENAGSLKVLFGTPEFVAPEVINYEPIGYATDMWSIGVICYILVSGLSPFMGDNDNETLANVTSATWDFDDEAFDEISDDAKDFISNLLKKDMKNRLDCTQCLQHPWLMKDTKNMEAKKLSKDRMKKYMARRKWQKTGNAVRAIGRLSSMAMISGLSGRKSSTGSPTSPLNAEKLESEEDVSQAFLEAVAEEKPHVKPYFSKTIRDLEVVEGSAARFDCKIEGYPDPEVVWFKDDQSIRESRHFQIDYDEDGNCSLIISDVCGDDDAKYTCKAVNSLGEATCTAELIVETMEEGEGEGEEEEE
Sequence of kinases (KINOMEscan panel) (Homo sapiens, UniProt Q9BWU1) (Q9BWU1 whole entry): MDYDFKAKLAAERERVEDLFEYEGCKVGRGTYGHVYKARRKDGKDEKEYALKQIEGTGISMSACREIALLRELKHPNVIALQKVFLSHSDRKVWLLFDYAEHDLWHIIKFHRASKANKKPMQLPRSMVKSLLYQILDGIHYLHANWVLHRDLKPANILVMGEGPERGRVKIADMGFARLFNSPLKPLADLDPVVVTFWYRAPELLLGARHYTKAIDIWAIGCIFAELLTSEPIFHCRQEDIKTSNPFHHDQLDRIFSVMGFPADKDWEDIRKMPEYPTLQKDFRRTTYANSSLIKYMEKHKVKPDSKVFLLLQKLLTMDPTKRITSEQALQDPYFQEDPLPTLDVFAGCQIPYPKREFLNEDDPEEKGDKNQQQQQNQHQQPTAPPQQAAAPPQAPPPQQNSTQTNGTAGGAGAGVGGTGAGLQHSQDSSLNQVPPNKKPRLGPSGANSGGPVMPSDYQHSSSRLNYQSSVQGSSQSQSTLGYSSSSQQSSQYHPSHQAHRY
Sequence of kinases (KINOMEscan panel) (Homo sapiens, UniProt O95747) (O95747 whole entry): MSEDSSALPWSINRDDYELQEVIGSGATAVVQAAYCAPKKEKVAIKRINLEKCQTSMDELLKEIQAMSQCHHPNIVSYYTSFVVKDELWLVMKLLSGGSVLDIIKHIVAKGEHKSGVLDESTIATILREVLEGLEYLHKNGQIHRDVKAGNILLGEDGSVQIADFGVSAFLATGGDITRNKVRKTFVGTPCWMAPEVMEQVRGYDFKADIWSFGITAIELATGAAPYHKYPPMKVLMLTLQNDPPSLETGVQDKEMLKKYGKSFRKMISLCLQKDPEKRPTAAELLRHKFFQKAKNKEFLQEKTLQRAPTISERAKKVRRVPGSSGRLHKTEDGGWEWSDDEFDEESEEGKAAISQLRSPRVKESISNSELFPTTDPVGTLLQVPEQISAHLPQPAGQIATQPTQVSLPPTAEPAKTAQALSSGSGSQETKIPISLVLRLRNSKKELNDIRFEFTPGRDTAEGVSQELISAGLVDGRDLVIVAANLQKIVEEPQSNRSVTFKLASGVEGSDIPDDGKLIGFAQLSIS
Sequence of kinases (KINOMEscan panel) (Homo sapiens, UniProt Q9BUB5) (Q9BUB5 whole entry): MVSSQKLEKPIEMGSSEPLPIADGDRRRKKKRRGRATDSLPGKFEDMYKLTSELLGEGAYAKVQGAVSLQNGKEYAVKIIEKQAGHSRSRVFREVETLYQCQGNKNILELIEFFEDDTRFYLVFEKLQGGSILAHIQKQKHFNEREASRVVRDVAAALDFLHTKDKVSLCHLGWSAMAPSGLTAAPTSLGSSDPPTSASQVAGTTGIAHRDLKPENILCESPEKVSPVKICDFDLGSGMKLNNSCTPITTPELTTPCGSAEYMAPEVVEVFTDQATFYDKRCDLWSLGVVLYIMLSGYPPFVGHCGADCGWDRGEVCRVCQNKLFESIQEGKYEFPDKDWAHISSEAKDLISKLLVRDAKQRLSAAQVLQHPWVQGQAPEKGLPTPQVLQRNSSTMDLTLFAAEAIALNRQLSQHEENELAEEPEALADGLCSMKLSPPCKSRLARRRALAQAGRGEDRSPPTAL

For `Cc1cccc(-c2nc(Nc3ccncc3)c3ccccc3n2)n1` [NK215], in series [1], the “KINOMEscan ULK1” value is given as 0. The “KINOMEscan OSXR1” value in series [2] is 0. The “KINOMEscan TTK” value in series [3] is given as 10. Moreover, the “KINOMEscan MYLK” value in series [4] is 12. In addition, the “KINOMEscan PKMYT1” value in series [5] was 0. Further, the “KINOMEscan MKNK1” value in series [6] is 0. The “KINOMEscan CDK19” value in series [7] is reported as 0.
